Test results published in patent publication US11214803B2, “Modulators of YAP1 expression” (Ionis Pharmaceuticals, Inc., priority 2019, dated 2022).

Test system: subcutaneous DEN carcinomas
Assay: Tumor volume in DEN-HCC model, in combination with a-PD1 antibody (Example 49)
Assay type: in vivo, C57BL/6 mice
Details: for Average Tumor Volume: DEN-HCC subcutaneous model, C57BL/6 mice
Protocol: N-nitrosodiethylamine (DEN) is administered at 25 mg/kg into 15 day old C57/BL6 mice. Carcinomas form 6 months post injection. After formation, carcinomas were then dissected from the liver and passaged subcutaneously into C57BL/6 male mice at 4-6 weeks of age to establish a subcutaneous model. For this experiment, mice were passaged with P8 subcutaneously established DEN carcinomas, rendering P9 for the duration of the experiment. Subcutaneous carcinomas are found to form at 4-6 weeks post implantation. Modified oligonucleotides 792169 (control compound) and 715491 (YAP-1 targeting modified oligonucleotide) were treated subcutaneously into groups of 7-8 mice at 10 mg/kg/week 5 times a week for 11 weeks (total of 55 doses). The PBS-only treated group and the control group were treated 5 times a week for 4 weeks (total of 20 doses). α-PD1 antibody (BioXCell) was treated intraperitoneally at 10 mg/kg/week twice a week for 4 weeks (total of 8 doses). F.D. refers to mice that were sacrificed because their tumor volume became too large.

Sequence: CGCCGATAAGGTACAC (cEt gapmer, phosphorothioate backbone, further chemistry not given here) [ION 792169, reference compound]
- Average Tumor Volume (day 1 on treatment): 354 mm3
- Average Tumor Volume (day 5 on treatment): 376 mm3
- Average Tumor Volume (day 8 on treatment): 414 mm3
- Average Tumor Volume (day 11 on treatment): 523 mm3
- Average Tumor Volume (day 15 on treatment): 604 mm3
- Average Tumor Volume (day 18 on treatment): 633 mm3
- Average Tumor Volume (day 23 on treatment): 773 mm3
- Average Tumor Volume (day 25 on treatment): 864 mm3
- Average Tumor Volume (day 28 on treatment): 802 mm3
- Average Tumor Volume (day 31 on treatment): F.D.
- Average Tumor Volume (day 35 on treatment): F.D.
- Average Tumor Volume (day 38 on treatment): F.D.
- Average Tumor Volume (day 43 on treatment): F.D.
- Average Tumor Volume (day 45 on treatment): F.D.
- Average Tumor Volume (day 49 on treatment): F.D.
- Average Tumor Volume (day 54 on treatment): F.D.
- Average Tumor Volume (day 58 on treatment): F.D.
- Average Tumor Volume (day 61 on treatment): F.D.
- Average Tumor Volume (day 65 on treatment): F.D.
- Average Tumor Volume (day 68 on treatment): F.D.
- Average Tumor Volume (day 72 on treatment): F.D.
- Average Tumor Volume (day 75 on treatment): F.D.
- Average Tumor Volume (day 79 on treatment): F.D.
- tumor volume (outcome in words) (subcutaneous DEN carcinomas in C57BL/6 male mice, 10 mg/kg/week, oligonucleotide subcutaneously, antibody intraperitoneally): sacrificed before the end of the experiment because their tumor volume became too large
